Results as given in patent US20230365553A1, “COMPOUNDS AND COMPOSITIONS FOR TREATING CONDITIONS ASSOCIATED WITH STING ACTIVITY” (IFM Due, Inc., priority 2020, published 2023).

Each molecule was assayed against T1, STING (Homo sapiens, UniProt Q86WV6, G230A/H232R/R293Q/R71H) (assay: STING reporter assay: luciferase reporter activity in THP1-Dual KO-IFNAR2 cells stimulated with 2′3′cGAMP). Conditions: 15 μM 2′3′cGAMP, 24h, read-out: hSTING EC50.
T1 construct: host or cells: THP1-Dual KO-IFNAR2 cells
T1 sequence (Q86WV6 whole entry R71H/G230A/H232R/R293Q): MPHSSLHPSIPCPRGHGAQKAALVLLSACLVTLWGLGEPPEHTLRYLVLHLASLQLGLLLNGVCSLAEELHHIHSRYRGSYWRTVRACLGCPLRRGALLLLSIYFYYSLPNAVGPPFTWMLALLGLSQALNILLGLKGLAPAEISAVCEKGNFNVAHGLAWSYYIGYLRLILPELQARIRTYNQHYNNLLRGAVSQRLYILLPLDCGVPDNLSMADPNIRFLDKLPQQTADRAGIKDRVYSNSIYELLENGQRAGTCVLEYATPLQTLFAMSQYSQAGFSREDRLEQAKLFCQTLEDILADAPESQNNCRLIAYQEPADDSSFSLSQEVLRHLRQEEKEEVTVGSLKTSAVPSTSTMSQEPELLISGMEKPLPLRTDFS
Type: cell-based
How it was run: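 THP1-Dual KO-IFNAR2 cells (2×10E6 cells/mL) were exposed to compounds at 0.0017-100 μM, then stimulated with 2′3′cGAMP (15 μM final) transfected via Lipofectamine 2000. After 24h at 37° C., secreted luciferase in supernatant was read by QUANTI-Luc luminescence; EC50 derived from concentration-response.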
In the case of `O=C(COCC(F)(F)F)Nc1c[nH]c2ccc(-c3cnn(-c4ccc(C(F)(F)F)cc4)c3)cc12` [Compound 207, 2-(2,2,2-trifluoroethoxy)-N-(5-(1-(4-(trifluoromethyl)phenyl)-1H-pyrazol-4-yl)-1H-indol-3-yl)acetamide], the EC50 is reported as 0.2 to 1 µM. `CC(=O)NCC(C)(C)C(=O)Nc1c[nH]c2ccc(-c3cnn(-c4ccc(C(F)(F)F)cc4)c3)cc12` [Compound 208, 3-acetamido-2,2-dimethyl-N-(5-(1-(4-(trifluoromethyl)phenyl)-1H-pyrazol-4-yl)-1H-indol-3-yl)propanamide] showed an EC50 of 1 to 5 µM. For `CCc1ccc(-n2cc(-c3ccc4[nH]cc(NC(=O)C5CCCO5)c4c3)cn2)cc1` (centres unmarked) [Compound 122, N-(5-(1-(4-ethylphenyl)-1H-pyrazol-4-yl)-1H-indol-3-yl)tetrahydrofuran-2-carboxamide], the EC50 was 0.2 to 1 µM. For `O=C(Nc1c[nH]c2ccc(-c3cnn(-c4ccc(C(F)(F)F)cc4)c3)cc12)c1cnoc1` [Compound 277, N-(5-(1-(4-(trifluoromethyl)phenyl)-1H-pyrazol-4-yl)-1H-indol-3-yl)isoxazole-4-carboxamide], the EC50 was 5 to 100 µM. Work on `O=C(Nc1c[nH]c2ccc(-c3cnn(-c4ccc(C(F)(F)F)cc4)c3)cc12)C1(C(F)(F)F)CC1` [Compound 238, 1-(trifluoromethyl)-N-(5-(1-(4-(trifluoromethyl)phenyl)-1H-pyrazol-4-yl)-1H-indol-3-yl)cyclopropane-1-carboxamide] yielded an EC50 of 1 to 5 µM. Work on `CCc1ccc(-n2cc(-c3ccc4[nH]cc(NC(=O)C(C)O)c4c3)cn2)cc1` (centres unmarked) [Compound 132, N-(5-(1-(4-ethylphenyl)-1H-pyrazol-4-yl)-1H-indol-3-yl)-2-hydroxypropanamide] yielded an EC50 of 0.2 to 1 µM. `O=C(COC(F)(F)F)Nc1c[nH]c2ccc(-c3cnn(-c4ccc(C(F)(F)F)cc4)c3)cc12` [Compound 212, 2-(trifluoromethoxy)-N-(5-(1-(4-(trifluoromethyl)phenyl)-1H-pyrazol-4-yl)-1H-indol-3-yl)acetamide] showed an EC50 of 0.2 to 1 µM. With `CCC(=O)Nc1c[nH]c2ccc(-c3cnn(-c4ccc(CC)nc4)c3)cc12` [Compound 120, N-(5-(1-(6-ethylpyridin-3-yl)-1H-pyrazol-4-yl)-1H-indol-3-yl)propionamide] the EC50 was 1 to 5 µM.
